From ChEMBL document CHEMBL1146032, “Synthesis and biological activity of nociceptin/orphanin FQ(1-13)NH2 analogues modified in 9 and/or 13 position” (Bioorg Med Chem Lett, 2006) come the findings set out here.

Assay type in all cases: functional, tissue-based
Experiment [1] deals with T1, Nociceptin receptor (Rattus norvegicus, UniProt P35370). The experiment in a line: (§1) Activity against LFES-evoked contraction of Wistar rat vas deferens.
Experiment [2] has as its target Nociceptin receptor (Rattus norvegicus) (UniProt P35370). The description is as §1.
Experiment [3] has the same target. In words: Activity against LFES-evoked contraction of Wistar rat vas deferens relative to N/OFQ(1-13)NH2 in presence of naloxone.
Experiment [4] deals with T1, Nociceptin receptor. The experiment in a line: (§2) Activity against LFES-evoked contraction of Wistar rat vas deferens in presence of naloxone.
In experiment [5] the target is Nociceptin receptor (Rattus norvegicus) (UniProt P35370). The description is as §2.
Nociceptin receptor (Rattus norvegicus), sequence (P35370 whole entry): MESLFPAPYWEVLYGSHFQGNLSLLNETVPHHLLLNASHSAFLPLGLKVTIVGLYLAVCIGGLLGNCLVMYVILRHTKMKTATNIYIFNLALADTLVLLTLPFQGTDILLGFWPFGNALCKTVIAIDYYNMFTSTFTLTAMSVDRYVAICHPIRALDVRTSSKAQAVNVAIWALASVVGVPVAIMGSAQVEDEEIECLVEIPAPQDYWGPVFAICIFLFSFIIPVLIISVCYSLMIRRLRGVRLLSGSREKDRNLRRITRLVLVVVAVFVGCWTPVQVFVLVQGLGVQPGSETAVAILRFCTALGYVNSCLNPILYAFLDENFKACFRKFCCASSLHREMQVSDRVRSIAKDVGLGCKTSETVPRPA
Experiment [6] has the same target. The experiment in a line: Activity against LFES-evoked contraction of Wistar rat vas deferens relative to N/OFQ(1-13)NH2.

Values joined by “and” are separate entries in the source; they are usually repeats but may differ in a detail not shown here. Identical values can stand only once. Where a SMILES comes first, the peptide text is derived from it. [ ]: non-standard residue; d: D form. Dap = NC[C@H](N)C(=O)O

T1 sequence (P35370 whole entry): as above

In the case of `C[C@H](NC(=O)CNC(=O)[C@@H](NC(=O)[C@H](Cc1ccccc1)NC(=O)CNC(=O)CNC(=O)[C@@H](N)Cc1ccccc1)[C@@H](C)O)C(=O)N[C@@H](CCCN=C(N)N)C(=O)N[C@@H](CCCN)C(=O)N[C@@H](CO)C(=O)N[C@@H](C)C(=O)N[C@@H](CCCN=C(N)N)C(=O)N[C@@H](CCCCN)C(N)=O`, the EC50 – broadly, the concentration giving half of the maximal effect – in experiment [1] is 234 nM; in experiment [4] it was 0.214 µM. For the same molecule, the figures for the Emax in experiment [2] and in experiment [5] were -71% and -77%, respectively. The results for the Activity in experiment [3] and in experiment [6] were 1.56 and 2.45, respectively.

As to `C[C@H](NC(=O)CNC(=O)[C@@H](NC(=O)[C@H](Cc1ccccc1)NC(=O)CNC(=O)CNC(=O)[C@@H](N)Cc1ccccc1)[C@@H](C)O)C(=O)N[C@@H](CCCN=C(N)N)C(=O)N[C@@H](CN)C(=O)N[C@@H](CO)C(=O)N[C@@H](C)C(=O)N[C@@H](CCCN=C(N)N)C(=O)N[C@@H](CN)C(N)=O` (H-FGGFTGAR[Dap]SAR[Dap]-NH2), the EC50 in experiment [1] was 2340 nM; in experiment [4], 6.17 µM. For the same molecule, the values for the Emax in experiment [2] and in experiment [5] were -54% and -46%, respectively. For the same molecule, the values for the Activity in experiment [3] and in experiment [6] were 0.06 and 0.25, respectively.

Turning to `C[C@H](NC(=O)CNC(=O)[C@@H](NC(=O)[C@H](Cc1ccccc1)NC(=O)CNC(=O)CNC(=O)[C@@H](N)Cc1ccccc1)[C@@H](C)O)C(=O)N[C@@H](CCCNC(=N)N)C(=O)N[C@@H](CCCCN)C(=O)N[C@@H](CO)C(=O)N[C@@H](C)C(=O)N[C@@H](CCCNC(=N)N)C(=O)N[C@@H](CCCCN)C(N)=O`, the Emax (in general, the maximal effect, on the per cent scale that the assay sets) in experiment [2] was -46%; in experiment [5] it was -49%. The Activity in experiment [3] and in experiment [6] was 1 throughout.

Regarding `C[C@H](NC(=O)CNC(=O)[C@@H](NC(=O)[C@H](Cc1ccccc1)NC(=O)CNC(=O)CNC(=O)[C@@H](N)Cc1ccccc1)[C@@H](C)O)C(=O)N[C@@H](CCCN=C(N)N)C(=O)N[C@@H](CCCN)C(=O)N[C@@H](CO)C(=O)N[C@@H](C)C(=O)N[C@@H](CCCN=C(N)N)C(=O)N[C@@H](CCCN)C(N)=O`, the EC50 in experiment [1] is 407 nM; in experiment [4], 0.977 µM. Further, the Emax was -56% in experiment [2] and -70% in experiment [5]. In addition, the figures for the Activity in experiment [3] and in experiment [6] were 2.45 and 1.41, respectively.

Take `C[C@H](NC(=O)CNC(=O)[C@@H](NC(=O)[C@H](Cc1ccccc1)NC(=O)CNC(=O)CNC(=O)[C@@H](N)Cc1ccccc1)[C@@H](C)O)C(=O)N[C@@H](CCCN=C(N)N)C(=O)N[C@@H](CCCCN)C(=O)N[C@@H](CO)C(=O)N[C@@H](C)C(=O)N[C@@H](CCCN=C(N)N)C(=O)N[C@@H](CCCN)C(N)=O`: the EC50 is 6170 nM and 11200 nM in experiment [1]; 9.33 µM and 11 µM in experiment [4]. The Emax was -60% and -57% in experiment [2]; -33% and -49% in experiment [5]. Further, the Activity in experiment [3] is 0.04; in experiment [6] it was 0.09 and 0.05.
